Values of other authors as cited in patent US20040197404A1, “Extended release oral dosage form” (priority 2001, published 2004).

Conditions: in vivo

## NC(=O)c1ccc(F)c2c1C[C@@H](N(C1CCC1)C1CCC1)CO2.O.O=C(O)C(O)C(O)C(=O)O [(R)-3-N,N-dicyclobutylamino-8-fluoro-3,4-dihydro-2H-1-benzopyran-5-carboxamide hydrogen (2R,3R)-tartrate monohydrate]
  plasma elimination half-life, t1/2: 1.5 h
